Blank lines part the entries; values can stand above or below the compound they belong to.
Key:
[1] = Solid form stability on storage at elevated relative humidity (XRPD); assay type: physicochemical
Description: X-Ray powder diffraction patterns were collected on a Bruker AXS C2 GADDS or Bruker AXS D8 Advance diffractometer.
X-Ray Powder Diffraction patterns were collected on a Bruker D8 diffractometer using Cu Kα radiation (40 kV, 40 mA), θ−2θ goniometer, and divergence of V4 and receiving slits, a Ge monochromator and a Lynxeye detector. The instrument was performance checked using a certified Corundum standard (NIST 1976). The software used for data collection was Diffrac Plus XRD Commander v2.5.0 and the data were analyzed and presented using Diffrac Plus EVA v 11.0.0.2 or v 13.0.0.2. Samples were run under ambient conditions as flat plate specimens using powder. Approximately 5 mg of the sample was gently packed into a cavity cut into polished, zero-background (510) silicon wafer. The sample was rotated in its own plane during analysis. The details of the data collection are: • Angular range: 2 to 42° 2θ • Step size: 0.05° 2θ • Collection time: 0.5 s·step^−1

[2] = Gravimetric Vapour Sorption (GVS); assay type: physicochemical
Method: In some embodiments, sorption isotherms were obtained using a SMS DVS Intrinsic moisture sorption analyzer, controlled by SMS Analysis Suite software. The sample temperature was maintained at 25° C. by the instrument controls. The humidity was controlled by mixing streams of dry and wet nitrogen, with a total flow rate of 200 ml·min−1. The relative humidity was measured by a calibrated Rotronic probe (dynamic range of 1.0-100% RH), located near the sample. The weight change (mass relaxation) of the sample as a function of % RH was constantly monitored by the microbalance (accuracy ±0.005 mg). Typically 5-20 mg of sample was placed in a tared mesh stainless steel basket under ambient conditions. The sample was loaded and unloaded at 40% RH and 25° C. (typical room conditions). A moisture sorption isotherm was performed as outlined below (2 scans giving 1 complete cycle). The standard isotherm was performed at 25° C. at 10% RH intervals over a 0.5-90% RH range.
The sample was recovered after completion of the isotherm and re-analyzed by XRPD.

[3] = Solubility assessment at various pH levels (solubility profile); assay type: physicochemical; conditions: 0.15M NaCl solution, saline or isotonic, thermodynamic from solid
Method: For solubility assessment at various pH levels sufficient material to produce a maximum concentration of 10 mg·ml^−1 of API was treated with 0.15M NaCl solution and then the pH adjusted with HCl or NaOH solutions to achieve the desired pH levels. The suspensions were allowed to equilibrate for 2 hours and the pH measured and adjusted if necessary. Suspensions were then filtered and the amount of dissolved API quantified by HPLC against a standard reference solution.
Analysis was performed on an Agilent HP1100 series system equipped with a diode array detector and using ChemStation software vB.02.01-SR1.
The solubility of both the free acid and amorphous sodium salt was determined at a range of pH values.

[4] = Metabolite identification in liver microsomes; assay type: in vitro ADME, rat, dog, monkey, human; conditions: 30 μM Compound 1, 60 minutes
Method: To determine the qualitative metabolic profile, 30 μM of Compound 1 was incubated aerobically with rat, dog, monkey, or human liver microsomes (1 mg/mL). The incubations were performed in phosphate buffer at pH 7.4, 37° C., with the reaction initiated by the addition of P-NADPH, GSH and/or UDPGA (1, 5 and 2 mM final concentration, respectively). The reaction was terminated by the addition of 3 times incubation volume of acetonitrile after 60 minutes. The sample was centrifuged and the supernatant was transferred, nitrogen blow dried and reconstituted in 50% acetonitrile in water for LC/MS analysis.
(§1) LC/MS/MS analysis was carried out with a Sciex API-4000Qtrap tandem mass spectrometer (Applied Biosystems/Life Technologies, Carlsbad, Calif.) interfaced to a high-performance liquid chromatography system consisting of an Agilent 1200 series pump (Foster City, Calif.) and a LEAP Technologies PAL autoinjector (Carrboro, N.C.).
(§2) Parent/metabolite analysis was conducted in the positive ion mode (ESI) by multiple reaction monitoring of parent. The mobile phases contained 10 mM ammonium acetate in water with 0.05% formic acid (solvent A) and 10 mM ammonium acetate in 50% acetonitrile/50% methanol with 0.05% formic acid (solvent B). For Compound 1, the flow rate was maintained at 1 mL/min and the total run time was 2.5 min. Analytes were separated on a YMC ODS-AQ column (2.1×150 mm; 3 μm) and eluted with a linear gradient as follows: • 1. mobile phase was held for 0.5 min at 5% B, • 2. B was increased from 5% to 95% over the next 0.2 min, • 3. B was held constant for 1.3 min at 95%, and • 4. B was returned to the initial gradient conditions.
(§3) GSH adducts were investigated in microsomes, hepatocytes and rat bile using several methods including the neutral loss of pyroglutamate (129 Da) as well as a precursor ion scans of Compound 1 (105 Da, 318 Da and 438 Da).
For metabolite quantitation, the flow rate was maintained at 0.25 mL/min and the total run time was 60 min. Analytes were separated using a linear gradient as follows: • 1. mobile phase was held for 5 min at 5% B, • 2. […]

[5] = Metabolite identification in hepatocytes; assay type: in vitro ADME, rat, dog, monkey, human; conditions: 30 μM Compound 1
Method: Rat, dog, monkey, or human hepatocytes were thawed according to the supplier's instructions. Cells were counted using the Trypan Blue method, and then diluted to 1×10^6 viable cells/ml with KB medium. Compound 1 was tested at 30 μM and incubated for up to 2 hours in rat hepatocytes and 4 hours in dog, monkey or human hepatocytes at 37° C. Reactions were terminated with addition of 3 times incubation volume of acetonitrile, centrifuged, and supernatants were transferred, nitrogen blow dried and reconstituted in 50% acetonitrile in water for LC/MS analysis.
as §1, §2, §3
For metabolite quantitation, the flow rate was maintained at 0.25 mL/min and the total run time was 60 min. Analytes were separated using a linear gradient as follows: • 1. mobile phase was held for 5 min at 5% B, • 2. B was increased from 5% to 95% over the next 45 min. • 3. […]

[6] = Metabolites generated in vivo (rat bile and urine, rat and dog plasma); conditions: Compound 2 IV 2 mg/kg, bile duct cannulated rats
Method: Compound 2 (2 mg/kg) was administered intravenously (IV) to fasted rats as a solution in 0.9% saline via a bolus injection into the jugular vein (2 mg/mL; […]).
Rats with surgically placed bile duct and jugular vein cannula were purchased from Charles River Laboratories and allowed to acclimate for 2 days. Compound 2 was intravenously dosed (2 mg/kg) to three rats as a solution in 0.9% saline (2 mg/mL; 1 mL/kg). Bile samples were collected at time-points 0-2, 2-5 and 5-8, and urine samples were collected at time-points 0-4 and 4-8 hrs post-dose in 8 mL scintillation vials and stored at −40° C. until analysis.
Concentrations of Compound 1 in rat plasma were determined by LC-MS/MS after protein precipitation. Rat plasma (100 μL) was treated with 400 μL of internal standard solution (ISTD, buspirone in acetonitrile containing 1.5% acetic acid) to precipitate proteins. Samples were vortexed and then centrifuged for 10 min at approximately 4,000 rpm (3700×g) at 4° C. (Beckman centrifuge, Brea, Calif.).
as §2
For metabolite quantitation, the flow rate was maintained at 0.25 mL/min and the total run time was 60 min. Analytes were separated using a linear gradient as follows: • 1. mobile phase was held for 5 min at 5% B, • 2. B was increased from 5% to 95% over the next 45 min. • 3. B was held constant for 5 min at 95%, and • 4. B was returned to the initial gradient conditions

[7] = 40° C./75% RH for one week, sodium salt

SMILES: Cc1noc(-c2ccc(-c3ccc(C4(C(=O)[O-])CC4)cc3)cc2)c1NC(=O)O[C@H](C)c1ccccc1.[Na+] [Amorphous Compound 2, 1-{4′-[3-methyl-4-((R)-1-phenyl-ethoxycarbonylamino)-isoxazol-5-yl]-biphenyl-4-yl}-cyclopropanecarboxylic acid, sodium salt]
XRPD / solid form after storage [1, 7]: remains largely amorphous
change of form after GVS analysis (XRPD) [2]: No change of form is observed
mass gain between 0% and 90% relative humidity ([2]; 25° C.): more than 20%

SMILES: Cc1noc(-c2ccc(-c3ccc(C4(C(=O)[O-])CC4)cc3)cc2)c1NC(=O)O[C@H](C)c1ccccc1.[Na+] [Compound 2 (Amorphous)]
solubility at 2 h ([3]; Target pH 3, pH adjusted with HCl or NaOH): < 1 µg/mL
solubility at 2 h ([3]; Target pH 4, pH adjusted with HCl or NaOH): < 1 µg/mL
solubility at 2 h ([3]; Target pH 5, pH adjusted with HCl or NaOH): < 1 µg/mL
solubility at 2 h ([3]; Target pH 6, pH adjusted with HCl or NaOH): 1.7 µg/mL
solubility at 2 h ([3]; Target pH 7, pH adjusted with HCl or NaOH): 300 µg/mL
solubility at 2 h ([3]; Target pH 8, pH adjusted with HCl or NaOH): 5600 µg/mL
solubility at 2 h ([3]; Target pH 9, pH adjusted with HCl or NaOH): 17000 µg/mL
solubility at 2 h ([3]; Target pH 11, pH adjusted with HCl or NaOH): 16000 µg/mL

SMILES: Cc1noc(-c2ccc(-c3ccc(C4(C(=O)[O-])CC4)cc3)cc2)c1NC(=O)O[C@H](C)c1ccccc1.[Na+] [Crystalline Compound 2 (Pattern 1), 1-{4′-[3-methyl-4-((R)-1-phenyl-ethoxycarbonylamino)-isoxazol-5-yl]-biphenyl-4-yl}-cyclopropanecarboxylic acid, sodium salt]
XRPD / solid form after storage ([1]; 25° C./95% RH, a week): no loss of crystallinity
XRPD / solid form after storage [1, 7]: no loss of crystallinity
hygroscopicity (comparison) [2]: lower hygroscopicity than its amorphous counterpart

Now from value to compound:

metabolite observed in liver microsomes [4]: major metabolites
metabolite observed in hepatocytes [5]: major metabolites
metabolite observed in rat bile [6]: major metabolites
SMILES: Cc1noc(-c2ccc(-c3ccc(C4(C(=O)ON[C@H](C=O)CCC(=O)O)CC4)cc3)cc2)c1NC(=O)O[C@H](C)c1ccccc1 [Compound M1]

metabolite observed in liver microsomes [4]: observed
metabolite observed in hepatocytes [5]: observed
metabolite observed in rat bile [6]: observed
SMILES: Cc1noc(-c2ccc(-c3ccc(C4(C(=O)O)CC4)cc3)cc2)c1NC(=O)O[C@H](C)c1cccc(O)c1 [Compound M4]

Reference: patent publication US20170121295A1, “POLYCYCLIC LPA1 ANTAGONIST AND USES THEREOF” (AMIRA PHARMACEUTICALS, INC., priority 2010, published 2017)
